The subject of the data set is CCRIS mutagenicity, Ames/micronucleus/aberration tests. The experiment in a line: CCRIS mutagenicity studies.
Where [1] appears, read: Test System: AMES SALMONELLA TYPHIMURIUM, Strain/Indicator: TA98, Metabolic Activation: NONE, Method: PREINCUBATION
[2] abbreviates: Test System: AMES SALMONELLA TYPHIMURIUM, Strain/Indicator: TA98, Metabolic Activation: NONE, Method: STANDARD PLATE.
[3] abbreviates: Test System: AMES SALMONELLA TYPHIMURIUM, Strain/Indicator: TA98, Metabolic Activation: RAT, LIVER, S-9, AROCLOR 1254, Method: STANDARD PLATE.
The mark [4] stands for this setting: Test System: AMES SALMONELLA TYPHIMURIUM, Strain/Indicator: TA100, Metabolic Activation: NONE, Method: STANDARD PLATE.
[5] abbreviates: Test System: AMES SALMONELLA TYPHIMURIUM, Strain/Indicator: TA100, Metabolic Activation: RAT, LIVER, S-9, AROCLOR 1254, Method: STANDARD PLATE.

Calls of active or inactive are those of the source. No rule for the calls is given here.

Consider `O=C1c2ccccc2-c2cc([N+](=O)[O-])ccc21`, for which the mutagenic call runs as follows: (Test System: AMES SALMONELLA TYPHIMURIUM, Strain/Indicator: TA98 (1,8-DNP6), Metabolic Activation: NONE, Method: PREINCUBATION) “active; positive”; (Test System: AMES SALMONELLA TYPHIMURIUM, Strain/Indicator: TA98(NR), Metabolic Activation: NONE, Method: PREINCUBATION) “active; positive”; (Test System: AMES SALMONELLA TYPHIMURIUM, Strain/Indicator: TA98(NR), Metabolic Activation: RAT LIVER S-9 (10%), Method: PREINCUBATION) “active; positive”; (Test System: AMES SALMONELLA TYPHIMURIUM, Strain/Indicator: TA98(NR), Metabolic Activation: RAT LIVER S-9, 3-METHYLCHOLANTHRENE (10%), Method: PREINCUBATION) “active; positive”; (Test System: AMES SALMONELLA TYPHIMURIUM, Strain/Indicator: TA98(NR), Metabolic Activation: RAT LIVER S-9, BETA-NAPHTHAFLAVONE (10%), Method: PREINCUBATION) “active; positive”; (Test System: AMES SALMONELLA TYPHIMURIUM, Strain/Indicator: TA98(NR), Metabolic Activation: RAT LIVER S-9, PCB (10%), Method: PREINCUBATION) “active; positive”. For the same compound, the mutagenic call (Test System: AMES SALMONELLA TYPHIMURIUM, Strain/Indicator: TA98(NR), Metabolic Activation: RAT LIVER S-9, PHENOBARBITAL (10%), Method: PREINCUBATION) was “active; positive”; the mutagenic call under setting [1] is “active; positive”; the mutagenic call under setting [2] was “active; positive”; the mutagenic call under setting [3] is “active; positive”; the mutagenic call under setting [4] is “inactive; negative”; the mutagenic call under setting [5] was “inactive; negative”. For the same compound, the mutagenic call was “inactive; negative” (Test System: AMES SALMONELLA TYPHIMURIUM, Strain/Indicator: TA7001, Metabolic Activation: NONE, Method: PREINCUBATION); “active; positive” (Test System: AMES SALMONELLA TYPHIMURIUM, Strain/Indicator: TA7002, Metabolic Activation: NONE, Method: PREINCUBATION); “active; positive” (Test System: AMES SALMONELLA TYPHIMURIUM, Strain/Indicator: TA7003, Metabolic Activation: NONE, Method: PREINCUBATION); “active; positive” (Test System: AMES SALMONELLA TYPHIMURIUM, Strain/Indicator: TA7004, Metabolic Activation: NONE, Method: PREINCUBATION); “active; positive” (Test System: AMES SALMONELLA TYPHIMURIUM, Strain/Indicator: TA7005, Metabolic Activation: NONE, Method: PREINCUBATION); “active; positive” (Test System: AMES SALMONELLA TYPHIMURIUM, Strain/Indicator: TA7006, Metabolic Activation: NONE, Method: PREINCUBATION).
As for `Nc1ccccc1SCSc1ccccc1N`, the mutagenic call is, setting by setting: under setting [2], “inactive; negative”; under setting [3], “inactive; negative”; under setting [4], “inactive; negative”; under setting [5], “active; positive”.
On to `COc1ccc(O)c2c(=O)c3c(OC)cc4c(c3oc12)[C@@H]1C=CO[C@@H]1O4`, for which the mutagenic call was “inactive; negative” (Test System: AMES SALMONELLA TYPHIMURIUM, Strain/Indicator: TA98, Metabolic Activation: RAT, LIVER, S-9, PHENOBARBITAL, Method: STANDARD PLATE) and “active; positive” (Test System: AMES SALMONELLA TYPHIMURIUM, Strain/Indicator: TA100, Metabolic Activation: RAT, LIVER, S-9, PHENOBARBITAL, Method: STANDARD PLATE).
Take `C[C@H]1COc2c(N3CCN(C)CC3)c(F)cc3c(=O)c(C(=O)O)cn1c23`: the mutagenic call is “inactive; negative” under setting [1]; “inactive; negative” (Test System: AMES SALMONELLA TYPHIMURIUM, Strain/Indicator: TA98, Metabolic Activation: RAT, LIVER, S-9, PHENOBARBITAL AND BETA-NAPHTHOFLAVONE, Method: PREINCUBATION); “inactive; negative” (Test System: AMES SALMONELLA TYPHIMURIUM, Strain/Indicator: TA100, Metabolic Activation: NONE, Method: PREINCUBATION); “inactive; negative” (Test System: AMES SALMONELLA TYPHIMURIUM, Strain/Indicator: TA100, Metabolic Activation: RAT, LIVER, S-9, PHENOBARBITAL AND BETA-NAPHTHOFLAVONE, Method: PREINCUBATION); “inactive; negative” (Test System: AMES SALMONELLA TYPHIMURIUM, Strain/Indicator: TA1535, Metabolic Activation: NONE, Method: PREINCUBATION); “inactive; negative” (Test System: AMES SALMONELLA TYPHIMURIUM, Strain/Indicator: TA1535, Metabolic Activation: RAT, LIVER, S-9, PHENOBARBITAL AND BETA-NAPHTHOFLAVONE, Method: PREINCUBATION). Also, the mutagenic call by setting is: (Test System: AMES SALMONELLA TYPHIMURIUM, Strain/Indicator: TA1537, Metabolic Activation: NONE, Method: PREINCUBATION) “inactive; negative”; (Test System: AMES SALMONELLA TYPHIMURIUM, Strain/Indicator: TA1537, Metabolic Activation: RAT, LIVER, S-9, PHENOBARBITAL AND BETA-NAPHTHOFLAVONE, Method: PREINCUBATION) “inactive; negative”; (Test System: CHINESE HAMSTER OVARY, Strain/Indicator: CHO-K1 (HGPRT)/6-THIOGUANINE, Metabolic Activation: NONE) “inactive; negative”; (Test System: CHINESE HAMSTER OVARY, Strain/Indicator: CHO-K1 (HGPRT)/6-THIOGUANINE, Metabolic Activation: RAT, LIVER, S-9, PHENOBARBITAL AND BETA-NAPHTHOFLAVONE) “inactive; negative”; (Test System: E.COLI, Strain/Indicator: WP2 UVRA, Metabolic Activation: NONE, Method: PREINCUBATION) “inactive; negative”; (Test System: E.COLI, Strain/Indicator: WP2 UVRA, Metabolic Activation: RAT, LIVER, S-9, PHENOBARBITAL AND BETA-NAPHTHOFLAVONE, Method: PREINCUBATION) “inactive; negative”. Besides, for the setting “Test System: UDS RAT HEPATOCYTES, Strain/Indicator: THY INCORP, Metabolic Activation: NONE, Method: IN VIVO-IN VITRO”, the mutagenic call was “inactive; negative”.

For the origin of these results see PubChem BioAssay AID1259407 (Chemical Carcinogenesis Research Information System (CCRIS), 2018).
